Measured values from US9526713B2, “Use of dencichine in preparation of drug for treating thrombocytopenia” (KUNMING SHENGHUO PHARMACEUTICAL (GROUP) CO., LTD., priority 2013, dated 2016).
Like-named read-outs stand apart in the source and are kept apart here.

What was measured:
[1] = Organ index of rats suffering thrombopenia induced by carboplatin; type: in vivo, Wistar rats
Description: (§1) 81 rats are prepared and randomly divided into eight groups: • blank control group, • high-dose group A (4 mg/kg, intraperitoneal injection, non modeling), • model group (40 mg/kg, tail vein injection), • interleukin-11 group (260 μg/kg, subcutaneous injection), • high dose group B (4 mg/kg, intraperitoneal injection, modeling), • high dose group (4 mg/kg, intraperitoneal injection), • middle dose group (1 mg/kg, intraperitoneal injection), and • low dose group (0.25 mg/kg, intraperitoneal injection),
(§2) Thereafter, all animals, except for those of blank group and high-dose group A, are individually injected with carboplatin (40 mg/kg) for modeling, and followed by successive administration for 15 days. During these 15 days, the rats of high-dose group A and high dose group B are stopped from administration, and taken blood from the tail on 5th day, 10th day and 15th day after the modeling respectively for detecting hematological indices. After 15th day of modeling, carboplatin (40 mg/kg) is injected again for a second modeling, and all the groups take successive administration according to the foregoing method, once a day for successive 10 days. Before each hematological indices detection, animals are weighed respectively. Taking the tails' blood of rats on 5th day after the second injection of carboplatin for detecting hematological indices, and taking the tails' blood of rats on 10th day after the second injection of carboplatin for detecting the indices of hematology, reticulocytes and coagulation; and weighing animals and killing them; and weighing liver, thymus, spleen and adrenal gland taken from the dead rats, and calculating out viscera indices; further taking out marrow for doing pathological examination.

female mouse = settings: cited from earlier work
[2] = type: in vivo, BALB/C mice
Description: Health BALB/C mice (body weight 18˜22 g) are randomly divided into six groups with 12 mice for each group:
Except the normal group, the mice of the remain five groups are injected with anti-mouse platelet serum (APS) of the guinea pig with a dose of 100 μl/20 g body weight, via intraperitoneal injection, on the 1st, 3rd, 5th, 7th, 9th, 11th and 13th day of the experiment.
The mice of each group are given intragastric administration from the first day. […] The mice of the prednisone acetate group are given intragastric administration of suspension of prednisone acetate at 5 mg/(kg·d). The mice of other groups are given intragastric administration of same volumetric of normal saline at 0.2 ml/20 g body weight. Intragastric administration for once each day, and continuous administration for 14 days.
The weights of mice of each group are respectively measured before modeling, on 7th test day, and on 14th test day.

[3] = system: rats with thrombocytopenia caused by carboplatin; test: Platelet count of rats with thrombocytopenia caused by carboplatin, different prophylactic administration time; type: in vivo, rat
[4] = system: rats suffering thrombopenia induced by carboplatin; test: Platelet count of rats suffering thrombopenia induced by multiple injections of carboplatin; type: in vivo, Wistar rats; settings: for increase of platelet count compared with the model group: first injection of carboplatin for 10 days
Description: as §1
wherein, the Model group has 11 rats, and the other groups has 10 rats respectively. Before the experiment, the animals are asked to adapt the environment for 2 days, and then blood is taken from their tails for detecting hematological index.
After administration for 10 days, blood is taken from tails of rats from blank control group, high-dose group A, and positive drug group respectively for detecting hematological index.
as §2

thrombocyte aggregation = test: Thrombocyte aggregation rate of rats injected with carboplatin; type: in vivo, rat
Description: So far, it has been reported that a little dencichine can be used as hemostatic drug in prior art, as disclosed in the patent application with publication No. CN1292376A that administrating a little dencichine can achieve hemostasis. However, it has never been reported that dencichine is able to treat Thrombocytopenia.

[5] = high dose group A, 4 mg/kg i.p., non modeling
[6] = high dose group B, 4 mg/kg i.p., prophylactic, modeling
[7] = low dose group, 0.25 mg/kg i.p.
[8] = middle dose group, 1 mg/kg i.p.

N[C@@H](CNC(=O)C(=O)O)C(=O)O [Dencichine, β-N-oxalyl-L-α, β-diaminopropionic acid]
organ index, Adrenal gland [1, 5]: 0.03 ± 0.004 g/100 g body weight
organ index, Liver [1, 5]: 3.33 ± 0.22 g/100 g body weight
organ index, Spleen [1, 5]: 0.28 ± 0.05 g/100 g body weight
organ index, Thymus gland [1, 5]: 0.18 ± 0.08 g/100 g body weight
organ index, Adrenal gland [1, 6]: 0.03 ± 0.01 g/100 g body weight
organ index, Liver [1, 6]: 3.70 ± 0.31 g/100 g body weight
organ index, Spleen [1, 6]: 0.36 ± 0.10 g/100 g body weight
organ index, Thymus gland [1, 6]: 0.10 ± 0.03 g/100 g body weight
organ index, Adrenal gland ([1]; high dose group, 4 mg/kg i.p.): 0.03 ± 0.004 g/100 g body weight
organ index, Liver ([1]; high dose group, 4 mg/kg i.p.): 3.61 ± 0.46 g/100 g body weight
organ index, Spleen ([1]; high dose group, 4 mg/kg i.p.): 0.32 ± 0.11 g/100 g body weight
organ index, Thymus gland ([1]; high dose group, 4 mg/kg i.p.): 0.11 ± 0.02 g/100 g body weight
organ index, Adrenal gland [1, 7]: 0.03 ± 0.004 g/100 g body weight
organ index, Liver [1, 7]: 3.71 ± 0.21 g/100 g body weight
organ index, Spleen [1, 7]: 0.35 ± 0.06 g/100 g body weight
organ index, Thymus gland [1, 7]: 0.11 ± 0.02 g/100 g body weight
organ index, Adrenal gland [1, 8]: 0.03 ± 0.01 g/100 g body weight
organ index, Liver [1, 8]: 3.50 ± 0.52 g/100 g body weight
organ index, Spleen [1, 8]: 0.32 ± 0.10 g/100 g body weight
organ index, Thymus gland [1, 8]: 0.09 ± 0.04 g/100 g body weight
increase of the platelet count (female mouse; 1 mg in 0.5 ml Ringer-Locke solution, injected into abdominal cavity of a female mouse): 30%
effect on the hemostasis and increase of platelet count (female mouse; Zhao Guoqiang et al., 1984): significant effect
body weight ([2]; high dose group (6 mg/kg per Table 8) intragastric, Day 0): 19.5 ± 1.5 g
body weight ([2]; high dose group (6 mg/kg per Table 8) intragastric, Day 7): 19.8 ± 1.4 g
body weight ([2]; high dose group (6 mg/kg per Table 8) intragastric, Day 14): 20.3 ± 1.8 g
body weight ([2]; low dose group (1.5 mg/kg per Table 8) intragastric, Day 0): 20.2 ± 2.0 g
body weight ([2]; low dose group (1.5 mg/kg per Table 8) intragastric, Day 7): 20.4 ± 1.5 g
body weight ([2]; low dose group (1.5 mg/kg per Table 8) intragastric, Day 14): 21.1 ± 1.6 g
body weight ([2]; middle dose group (3 mg/kg) intragastric, Day 0): 19.9 ± 1.9 g
body weight ([2]; middle dose group (3 mg/kg) intragastric, Day 7): 20.1 ± 1.7 g
body weight ([2]; middle dose group (3 mg/kg) intragastric, Day 14): 20.8 ± 1.7 g
platelet count compared with that of model group ([3]; prophylactic administration for 3 days): no significant difference
platelet count ([3]; prophylactic administration for 3 days, after prophylactic administration): 656.3 ± 67.35 ×10^9/L
platelet count ([3]; prophylactic administration for 3 days, initial value): 717.5 ± 276.94 ×10^9/L
platelet count ([3]; prophylactic administration for 3 days, injection of carboplatin for 10 days): 110.2 ± 40.43 ×10^9/L
platelet count compared with that of model group ([3]; prophylactic administration for 5 days and 7 days): increase the platelet count
platelet count ([3]; prophylactic administration for 5 days, after prophylactic administration): 773.2 ± 142.02 ×10^9/L
platelet count ([3]; prophylactic administration for 5 days, initial value): 736.2 ± 182.37 ×10^9/L
platelet count ([3]; prophylactic administration for 5 days, injection of carboplatin for 10 days): 176.2 ± 28.34 ×10^9/L
platelet count ([3]; prophylactic administration for 7 days, after prophylactic administration): 772.8 ± 70.63 ×10^9/L
platelet count ([3]; prophylactic administration for 7 days, initial value): 743.7 ± 226.92 ×10^9/L
platelet count ([3]; prophylactic administration for 7 days, injection of carboplatin for 10 days): 166.2 ± 18.20 ×10^9/L
platelet count ([4]; high dose group A, 4 mg/kg i.p., non modeling, 5th day after first injection of carboplatin): 1113.8 ± 356.97 ×10^9/L
platelet count ([4]; high dose group A, 4 mg/kg i.p., non modeling, 5th day after second injection of carboplatin): 1163.3 ± 233.2 ×10^9/L
platelet count ([4]; high dose group A, 4 mg/kg i.p., non modeling, 10th day after first injection of carboplatin): 638.5 ± 207.9 ×10^9/L
platelet count ([4]; high dose group A, 4 mg/kg i.p., non modeling, 10th day after second injection of carboplatin): 873 ± 147.2 ×10^9/L
platelet count ([4]; high dose group A, 4 mg/kg i.p., non modeling, 15th day after first injection of carboplatin): 799.5 ± 349.8 ×10^9/L
platelet count ([4]; high dose group A, 4 mg/kg i.p., non modeling, before experiment): 625.5 ± 109.3 ×10^9/L
platelet count ([4]; high dose group A, 4 mg/kg i.p., non modeling, prophylactic administration for 10 days): 586.9 ± 139.67 ×10^9/L
platelet count ([4]; high dose group B, 4 mg/kg i.p., prophylactic, modeling, 5th day after first injection of carboplatin): 392.7 ± 116.9 ×10^9/L
platelet count ([4]; high dose group B, 4 mg/kg i.p., prophylactic, modeling, 5th day after second injection of carboplatin): 682.1 ± 266.4 ×10^9/L
platelet count ([4]; high dose group B, 4 mg/kg i.p., prophylactic, modeling, 10th day after first injection of carboplatin): 142.6 ± 78.6 ×10^9/L
platelet count ([4]; high dose group B, 4 mg/kg i.p., prophylactic, modeling, 10th day after second injection of carboplatin): 150.5 ± 99.9 ×10^9/L
platelet count ([4]; high dose group B, 4 mg/kg i.p., prophylactic, modeling, 15th day after first injection of carboplatin): 649.8 ± 234.1 ×10^9/L
platelet count ([4]; high dose group B, 4 mg/kg i.p., prophylactic, modeling, before experiment): 619.7 ± 106.81 ×10^9/L
platelet count ([4]; high dose group, 4 mg/kg i.p., 5th day after first injection of carboplatin): 302.2 ± 62.2 ×10^9/L
platelet count ([4]; high dose group, 4 mg/kg i.p., 5th day after second injection of carboplatin): 758.9 ± 231.2 ×10^9/L
platelet count ([4]; high dose group, 4 mg/kg i.p., 10th day after first injection of carboplatin): 186.9 ± 81.0 ×10^9/L
platelet count ([4]; high dose group, 4 mg/kg i.p., 10th day after second injection of carboplatin): 133.8 ± 126.3 ×10^9/L
platelet count ([4]; high dose group, 4 mg/kg i.p., 15th day after first injection of carboplatin): 1038.3 ± 237.1 ×10^9/L
platelet count ([4]; high dose group, 4 mg/kg i.p., before experiment): 625.7 ± 127.04 ×10^9/L
increase of platelet count compared with the model group ([4]; high-dose group (4 mg/kg i.p.)): 27.1%
platelet count ([4]; low dose group, 0.25 mg/kg i.p., 5th day after first injection of carboplatin): 331.4 ± 76.3 ×10^9/L
platelet count ([4]; low dose group, 0.25 mg/kg i.p., 5th day after second injection of carboplatin): 712.8 ± 324.7 ×10^9/L
platelet count ([4]; low dose group, 0.25 mg/kg i.p., 10th day after first injection of carboplatin): 157.8 ± 49.3 ×10^9/L
platelet count ([4]; low dose group, 0.25 mg/kg i.p., 10th day after second injection of carboplatin): 133 ± 83.661 ×10^9/L
platelet count ([4]; low dose group, 0.25 mg/kg i.p., 15th day after first injection of carboplatin): 956.8 ± 266.5 ×10^9/L
platelet count ([4]; low dose group, 0.25 mg/kg i.p., before experiment): 611.5 ± 90.19 ×10^9/L
platelet count ([4]; middle dose group, 1 mg/kg i.p., 5th day after first injection of carboplatin): 359 ± 102.4 ×10^9/L
platelet count ([4]; middle dose group, 1 mg/kg i.p., 5th day after second injection of carboplatin): 620.2 ± 226.1 ×10^9/L
platelet count ([4]; middle dose group, 1 mg/kg i.p., 10th day after first injection of carboplatin): 197.7 ± 78.8 ×10^9/L
platelet count ([4]; middle dose group, 1 mg/kg i.p., 10th day after second injection of carboplatin): 70.386 ± 36.845 ×10^9/L
platelet count ([4]; middle dose group, 1 mg/kg i.p., 15th day after first injection of carboplatin): 1043.4 ± 288.1 ×10^9/L
platelet count ([4]; middle dose group, 1 mg/kg i.p., before experiment): 623 ± 98 ×10^9/L
increase of platelet count compared with the model group ([4]; middle-dose group (1 mg/kg i.p.)): 34.4%
thrombocyte aggregation rate (thrombocyte aggregation): increasing thrombocyte aggregation rate
